In publication PMC12669040, “Tumour-specific STING agonist synthesis via a two-component prodrug system” (Nature Chemistry, 2025):
“And” between values parts separate entries of the source, which are not always exact repeats. Equal entries are not always repeated. Where two headings read alike, the source gives them in different places.

Key:
[1] = Competition assay: N1–E4 dimerization in the presence of competitors C1–6 (HPLC); format: physicochemical; details: equimolar E4, competitor and N1, 50 μM each
[2] = Colorimetric alkylation rate constant assay with TNB^2− as non-specific thiol; format: physicochemical; set-up: second-order: unit not given here; details: [B]0 = 250, Replicates 1-3
[3] = Colorimetric alkylation rate constant assay with thiol N1; format: physicochemical
THP-1 Lucia ISG cells = test: β-Glucuronidase-specific STING activation, cytokine secretion assays; format: cell-based, human; details: 25 μM each, with β-glucuronidase 250 units ml^−1, 24 h
Protocol: THP-1 Lucia ISG cells were maintained as described above. On the day of the experiment, cells were pelleted (150g, 10 min) and resuspended in the growth medium (40% conditioned) at a density of 1 × 10^6 cells ml^−1. […] The supernatants were collected, aliquoted and frozen at −20 °C for future analysis. […] Data were analysed by two-tailed Welch’s t-test (GraphPad Prism).

CT26mβGUS tumours [4] = details: mouse, in vivo
E. coli β-glucuronidase = E. coli β-glucuronidase (Escherichia coli, UniProt P05804); details: pH 6.8
Chain of E. coli β-glucuronidase (P05804 whole entry): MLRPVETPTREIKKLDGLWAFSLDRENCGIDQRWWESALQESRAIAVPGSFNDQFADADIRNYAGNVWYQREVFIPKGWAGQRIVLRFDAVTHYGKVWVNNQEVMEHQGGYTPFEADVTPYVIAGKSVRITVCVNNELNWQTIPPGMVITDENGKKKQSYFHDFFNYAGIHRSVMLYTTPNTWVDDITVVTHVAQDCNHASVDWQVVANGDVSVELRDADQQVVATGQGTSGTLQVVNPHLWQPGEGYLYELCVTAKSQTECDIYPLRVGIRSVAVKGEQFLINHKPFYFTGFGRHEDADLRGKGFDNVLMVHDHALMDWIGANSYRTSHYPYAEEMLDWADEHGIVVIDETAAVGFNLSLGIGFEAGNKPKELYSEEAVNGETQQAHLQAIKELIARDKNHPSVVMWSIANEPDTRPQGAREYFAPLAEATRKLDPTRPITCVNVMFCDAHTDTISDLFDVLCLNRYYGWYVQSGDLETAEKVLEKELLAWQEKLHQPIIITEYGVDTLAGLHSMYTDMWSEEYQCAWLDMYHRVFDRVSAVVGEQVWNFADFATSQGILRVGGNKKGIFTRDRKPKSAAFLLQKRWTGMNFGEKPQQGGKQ

THP-1 cells = test: Dilution limits of N1/E4 combination to activate THP-1 cells (IFN-β ELISA); details: IFN-β secretion, 6 h, single component
[5] = LC-MS analysis of the N1–E4 reaction in the presence of glutathione; format: physicochemical; details: 50 μM N1 + 50 μM E4, 1 mM glutathione, pH 7.0, 37 °C, 2 h
Protocol: Extended Data Fig. 5 LC-MS analysis of the reaction between N1 and E4 in the presence of glutathione (1 mM). N1 (50 μM) and E4 (50 μM) were reacted at neutral pH (25 mM HEPES pH 7.0, 150 mM NaCl) and in the presence of reduced glutathione (1 mM). The reaction mixture was incubated at 37 °C for 2 h. No glutathione-adduct of E4 was identified. TEXT PRINTED IN THE PICTURE: no label printed: exact mass: 340.04 | no label printed: exact mass: 618.05

[6] = Stability test in human plasma; format: in vitro ADME; details: 48 h, 37 °C
Protocol: Extended Data Fig. 6 Stability test of β-GlcA-N1 (1 mM) in human plasma. At the indicated time point, an 80 µL aliquot was loaded onto an Agilent Bond Elut solid phase extraction column (C18, 3 mL bed volume). The collected eluent was lyophilized, redissolved in a 50% (v/v) acetonitrile in water (0.1% v/v formic acid), and analyzed by LC-MS. TEXT PRINTED IN THE PICTURE: β-GlcA-N1: integration value: 91206 (t = 0 hr, human plasma); integration value: 84431 (t = 48 hr, 37 °C, human plasma) | no label printed: exact mass: 502.06 | no label printed: exact mass: 309.02 DOUBTS OF THE COPYIST ABOUT THIS PICTURE: The name β-GlcA-N1 is printed only at the peak in the upper chromatogram. The lower chromatogram's integration value (84431) is assigned to it as the same peak. / The two drawn structures have no printed label. Their exact masses are given with an empty substance label.

MC38 tumours = details: for Tumor Size: individual mice, * = excluded once a death was recorded in the group
CT26mβGUS tumours [7] = test: CT26mβGUS syngeneic mouse tumour model; details: single component alone
human β-glucuronidase = target: T1, human β-glucuronidase (Homo sapiens, UniProt P08236); test: Michaelis–Menten kinetics of β-GlcA-N1 cleavage; format: biochemical; details: for dilution-corrected deltaN1: replicates 1 and 2
T1 construct: purchased AcroBiosystems BEB-H52H3
T1 sequence (P08236 23-651): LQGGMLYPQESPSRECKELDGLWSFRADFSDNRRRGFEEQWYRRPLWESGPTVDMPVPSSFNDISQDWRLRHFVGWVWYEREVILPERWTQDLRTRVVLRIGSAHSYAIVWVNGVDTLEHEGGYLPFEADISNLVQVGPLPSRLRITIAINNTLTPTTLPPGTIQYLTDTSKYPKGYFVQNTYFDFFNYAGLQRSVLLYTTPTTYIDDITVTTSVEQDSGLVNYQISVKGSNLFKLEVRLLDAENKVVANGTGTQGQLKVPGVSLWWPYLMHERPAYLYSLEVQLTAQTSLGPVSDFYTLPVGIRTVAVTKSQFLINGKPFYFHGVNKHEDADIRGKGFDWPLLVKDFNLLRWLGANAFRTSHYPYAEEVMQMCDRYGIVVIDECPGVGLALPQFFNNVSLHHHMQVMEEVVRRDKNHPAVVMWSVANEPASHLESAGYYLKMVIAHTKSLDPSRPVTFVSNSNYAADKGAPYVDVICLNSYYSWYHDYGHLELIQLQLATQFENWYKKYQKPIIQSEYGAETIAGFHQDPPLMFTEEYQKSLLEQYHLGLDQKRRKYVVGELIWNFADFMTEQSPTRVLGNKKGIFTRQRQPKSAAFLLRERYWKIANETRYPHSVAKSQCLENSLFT
Protocol: Human β-glucuronidase (AcroBiosystems BEB-H52H3) was reconstituted in deionized water to a concentration of 1 mg ml^−1. The enzyme stock solution was further diluted in assay buffer (0.2 M acetate pH 4.5) to 10 μg ml^−1 (134 nM). β-GlcA-N1 (50 mM DMSO stock) was twofold serially diluted in assay buffer from 5 to 0.078 mM. The enzyme solution and diluted β-GlcA-N1 were incubated in a transparent 96-well plate and incubated at 37 °C until thermo equilibrium was reached. Then, 100 µl of β-GlcA-N1 at various concentrations was mixed with 100 µl of β-glucuronidase using a multichannel pipette, resulting in the following initial condition: [β-GlcA-N1] = 2.5, 1.25, 0.62, 0.31, 0.16, 0.08 and 0.04 mM; [β-glucuronidase] = 67 nM; 5% DMSO (v/v). The reactions were incubated at 37 °C. At 30-min and 60-min timepoints, a 50-µl portion was withdrawn from each reaction mixture and mixed with 50 µl of quenching buffer (1 M sodium carbonate, 1 mM TCEP). The concentration of liberated N1 was determined by comparing the absorbance of each quenched reaction at 410 nm to a calibration curve of purified N1. Reaction velocities were calculated from the slopes of [N1] versus time plots. The velocity versus [β-GlcA-N1] plot was then fitted with the standard Michaelis–Menten kinetic model (GraphPad Prism).

## O=C(CCl)Nc1cc(C(F)(F)F)cc(C(F)(F)F)c1 [Compound C1]
[1]
  reduction of the amount of N1–E4 dimer by the competitor: 35%
[2]; Time 2891 sec
  second-order: 0.0005428 and 0.0004879 and 0.0005765
[2]; Time 3071 sec
  second-order: 0.0005659 and 0.0004944 and 0.0005968
[2]; Time 3252 sec
  second-order: 0.0005928 and 0.000525 and 0.0006178
[2]; Time 3433 sec
  second-order: 0.0006132 and 0.0005166 and 0.0006465
[2]; Time 3613 sec
  second-order: 0.0006269 and 0.0005419 and 0.0006634
[2]; Time 3794 sec
  second-order: 0.0006518 and 0.0005802 and 0.0006849
[2]; Time 3974 sec
  second-order: 0.0006575 and 0.0005747 and 0.00069
[2]; Time 4155 sec
  second-order: 0.0006878 and 0.0006116 and 0.0007283
[2]; Time 4336 sec
  second-order: 0.0007043 and 0.0006446 and 0.000736
[2]; Time 4516 sec
  second-order: 0.0007158 and 0.0006546 and 0.0007684
[2]; Time 4697 sec
  second-order: 0.0007519 and 0.0006931 and 0.0007736
[2]; Time 4878 sec
  second-order: 0.0007648 and 0.000697 and 0.0008077
[2]; Time 5058 sec
  second-order: 0.000772 and 0.0007238 and 0.0008222
[2]; Time 5239 sec
  second-order: 0.0008041 and 0.000747 and 0.0008434
[2]; Time 5419 sec
  second-order: 0.0008239 and 0.0007489 and 0.0008675
[2]; Time 5600 sec
  second-order: 0.0008471 and 0.0007554 and 0.0008837
[2]; Time 5781 sec
  second-order: 0.0008692 and 0.0007775 and 0.0009026
[2]; Time 5961 sec
  second-order: 0.0008692 and 0.000805 and 0.0009333
[3]; Replicate 1, time 576 sec, second-order plot value
  second-order: 0.007537
[3]; Replicate 1, time 606 sec, second-order plot value
  second-order: 0.007697
[3]; Replicate 2, time 576 sec, second-order plot value
  second-order: 0.007533
[3]; Replicate 2, time 606 sec, second-order plot value
  second-order: 0.00792
[3]; Replicate 3, time 576 sec, second-order plot value
  second-order: 0.007357
[3]; Replicate 3, time 606 sec, second-order plot value
  second-order: 0.007639
[3]; time 0 sec, replicates 1-3
  second-order: 0.001153 and 0.001059 and 0.00116
[3]; time 30 sec, replicates 1-3
  second-order: 0.001608 and 0.001493 and 0.001543
[3]; time 60 sec, replicates 1-3
  second-order: 0.001966 and 0.001867 and 0.001909
[3]; time 91 sec, replicates 1-3
  second-order: 0.002342 and 0.002215 and 0.002258
[3]; time 121 sec, replicates 1-3
  second-order: 0.002679 and 0.002554 and 0.002612
[3]; time 151 sec, replicates 1-3
  second-order: 0.002904 and 0.002968
[3]; time 212 sec, replicates 1-3
  second-order: 0.003712 and 0.003583 and 0.003667
[3]; time 242 sec, replicates 1-3
  second-order: 0.004057 and 0.003913 and 0.004
[3]; time 273 sec, replicates 1-3
  second-order: 0.00439 and 0.004239 and 0.004347
[3]; time 303 sec, replicates 1-3
  second-order: 0.004715 and 0.004571 and 0.004691
[3]; time 333 sec, replicates 1-3
  second-order: 0.005043 and 0.004886 and 0.00503
[3]; time 364 sec, replicates 1-3
  second-order: 0.005369 and 0.005207 and 0.005358
[3]; time 394 sec, replicates 1-3
  second-order: 0.005645 and 0.005521 and 0.005712
[3]; time 424 sec, replicates 1-3
  second-order: 0.005918 and 0.005838 and 0.006051
[3]; time 454 sec, replicates 1-3
  second-order: 0.006191 and 0.006157 and 0.006365
[3]; time 485 sec, replicates 1-3
  second-order: 0.006532 and 0.006449 and 0.006705
[3]; time 515 sec, replicates 1-3
  second-order: 0.006798 and 0.006747 and 0.007019
[3]; time 545 sec, replicates 1-3
  second-order: 0.007139 and 0.00704 and 0.007306

## CCSc1cc2cc(C(=O)CCC(=O)O)sc2cc1OC [Compound E4-ctrl]
THP-1 Lucia ISG cells
  secretion of cytokines downstream of STING (interferon-β, CXCL-10, IL-6): diminished the cytokine inductions

## COc1cc2sc(C(=O)CCC(=O)O)cc2cc1SCCCl [Compound E4]
CT26mβGUS tumours [4]
  body weight: no significant losses were observed
E. coli β-glucuronidase
  stability in phosphate buffer without added enzyme: most E4 underwent hydrolysis
THP-1 cells
  concentration up to which no STING activation was shown (alone): > 64 µM
[5]
  glutathione adduct formation: No glutathione–E4 adduct was detected

## COc1cc2sc(C(=O)CCC(=O)O)cc2cc1SCO[C@@H]1O[C@H](C(=O)O)[C@@H](O)[C@H](O)[C@H]1O [β-GlcA-N1]
[6]
  fraction remaining intact in human plasma: more than 90%
E. coli β-glucuronidase
  stability in phosphate buffer without added enzyme: remained stable
MC38 tumours; day 23
  Tumor Size: 113* mm^3 and 189.9* mm^3
MC38 tumours; day 25
  Tumor Size: 125.8124* mm^3 and 301.5* mm^3
MC38 tumours; day 30
  Tumor Size: 445.0408* mm^3 and 632.5* mm^3
MC38 tumours; day 33
  Tumor Size: 1167* mm^3 and 1562* mm^3
MC38 tumours; mouse, in vivo
  Survival: Days: 17 days and 33 days and 21 days
  Survival: death event (1 denotes a death event): 1
CT26mβGUS tumours [7]
  body weight: no significant losses were observed
Human β-glucuronidase; Vmax / enzyme (6.71141e-8 M)
  kcat: 0.4762
Human β-glucuronidase; substrate conc. 0.0390625 mM
  dilution-corrected deltaN1: 4.272e-06 mM/s and 3.586e-06 mM/s
Human β-glucuronidase; substrate conc. 0.078125 mM
  dilution-corrected deltaN1: 6.962e-06 mM/s and 7.225e-06 mM/s
Human β-glucuronidase; substrate conc. 0.15625 mM
  dilution-corrected deltaN1: 1.1761e-05 mM/s and 1.16e-05 mM/s
Human β-glucuronidase; substrate conc. 0.3125 mM
  dilution-corrected deltaN1: 1.598e-05 mM/s and 1.529e-05 mM/s
Human β-glucuronidase; substrate conc. 0.625 mM
  dilution-corrected deltaN1: 2.231e-05 mM/s and 1.587e-05 mM/s
Human β-glucuronidase; substrate conc. 1.25 mM
  dilution-corrected deltaN1: 2.547e-05 mM/s and 2.51e-05 mM/s
Human β-glucuronidase; substrate conc. 2.5 mM
  dilution-corrected deltaN1: 3.022e-05 mM/s and 2.88e-05 mM/s
